Measured values reported in patent publication US11891365B2, “3-alkyl-4-amido-bicyclic [4,5,0] hydroxamic acids as HDAC inhibitors” (Valo Health, Inc., priority 2015, dated 2024).
pIC50: −log10 of the molar value.

What follows are molecules tested against T1, Full length human recombinant HDAC6 protein (Homo sapiens, UniProt Q9UBN7) (assay: In vitro histone deacetylase assay: enzymatic HDAC6 electrophoretic mobility shift assay). Settings: 1 nM enzyme, 2 μM peptide substrate RHKK(Ac)-NH2, 25° C., 12 concentrations; read-out: Inhibitory Concentration (IC50) Values against HDAC6, Activity Range.
T1 sequence (Q9UBN7 1-1215): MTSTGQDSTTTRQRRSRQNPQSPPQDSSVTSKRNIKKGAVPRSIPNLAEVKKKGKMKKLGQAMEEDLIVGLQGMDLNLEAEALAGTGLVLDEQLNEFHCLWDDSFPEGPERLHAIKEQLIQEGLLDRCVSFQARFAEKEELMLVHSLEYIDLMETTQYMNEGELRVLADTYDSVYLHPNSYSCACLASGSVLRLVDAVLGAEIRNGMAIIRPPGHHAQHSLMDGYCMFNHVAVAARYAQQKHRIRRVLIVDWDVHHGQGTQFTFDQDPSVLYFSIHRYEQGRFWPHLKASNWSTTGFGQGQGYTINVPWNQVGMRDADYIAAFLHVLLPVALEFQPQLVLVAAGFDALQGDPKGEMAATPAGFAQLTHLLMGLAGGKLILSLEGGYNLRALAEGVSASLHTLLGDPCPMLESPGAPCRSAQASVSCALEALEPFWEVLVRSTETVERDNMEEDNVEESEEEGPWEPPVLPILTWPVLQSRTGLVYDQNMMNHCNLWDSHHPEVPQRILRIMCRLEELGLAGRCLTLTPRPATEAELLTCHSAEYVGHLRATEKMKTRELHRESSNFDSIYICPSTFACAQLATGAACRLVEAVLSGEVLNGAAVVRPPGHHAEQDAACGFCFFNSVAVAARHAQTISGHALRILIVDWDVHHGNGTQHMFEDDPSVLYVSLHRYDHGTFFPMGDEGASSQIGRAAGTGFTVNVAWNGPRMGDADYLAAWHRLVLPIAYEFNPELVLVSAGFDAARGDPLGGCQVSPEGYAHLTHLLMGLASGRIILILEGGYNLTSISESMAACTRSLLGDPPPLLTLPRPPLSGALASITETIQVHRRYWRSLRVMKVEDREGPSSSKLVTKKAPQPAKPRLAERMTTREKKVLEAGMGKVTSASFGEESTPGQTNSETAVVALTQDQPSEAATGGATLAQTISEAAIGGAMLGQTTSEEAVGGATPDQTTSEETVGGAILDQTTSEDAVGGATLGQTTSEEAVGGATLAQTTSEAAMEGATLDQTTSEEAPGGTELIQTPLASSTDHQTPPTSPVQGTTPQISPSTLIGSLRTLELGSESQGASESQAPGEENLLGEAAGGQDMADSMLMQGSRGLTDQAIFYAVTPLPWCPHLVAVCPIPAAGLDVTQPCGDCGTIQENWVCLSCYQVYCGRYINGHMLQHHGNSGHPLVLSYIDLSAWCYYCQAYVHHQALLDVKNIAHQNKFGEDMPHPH
Format: biochemical

| Compound | pIC50 |
| --- | --- |
| COc1ccc(C(C)(C)C(=O)N2CCOc3cc(C(=O)NO)ccc3C2)cc1OC [4-(2-(3,4-dimethoxyphenyl)-2-methylpropanoyl)-N-hydroxy-2,3,4,5-tetrahydrobenzo[f][1,4]oxazepine-8-carboxamide] | 6.30 to 7.00 |
| CC(C(=O)N1CCOc2cc(C(=O)NO)ccc2C1)c1ccc(F)cc1 (centres unmarked) [4-(2-(4-fluorophenyl)propanoyl)-N-hydroxy-2,3,4,5-tetrahydrobenzo[f][1,4]oxazepine-8-carboxamide] | 6.30 to 7.00 |
| CC(C)(C(=O)N1CCOc2cc(C(=O)NO)ccc2C1)c1ccc(-c2ccccc2)cc1 [4-(2-([1,1′-biphenyl]-4-yl)-2-methylpropanoyl)-N-hydroxy-2,3,4,5-tetrahydrobenzo[f][1,4]oxazepine-8-carboxamide] | 6.30 to 7.00 |
| O=C(NO)c1ccc2c(c1)OCCN(C(=O)C1(c3ccccc3)CC1)C2 [N-hydroxy-4-(1-phenylcyclopropane-1-carbonyl)-2,3,4,5-tetrahydrobenzo[f][1,4]oxazepine-8-carboxamide] | ≥ 7.00 |
| O=C(NO)c1ccc2c(c1)OCCN(C(=O)C(c1ccccc1)C1CCCCC1)C2 (centres unmarked) [4-(2-cyclohexyl-2-phenylacetyl)-N-hydroxy-2,3,4,5-tetrahydrobenzo[f][1,4]oxazepine-8-carboxamide] | < 6.30 |
| O=C(NO)c1ccc2c(c1)OCCN(C(=O)C(c1ccccc1)n1cccn1)C2 (centres unmarked) [N-hydroxy-4-(2-phenyl-2-(1H-pyrazol-1-yl)acetyl)-2,3,4,5-tetrahydrobenzo[f][1,4]oxazepine-8-carboxamide] | 6.30 to 7.00 |
| O=C(NO)c1ccc2c(c1)OCCN(C(=O)CCc1ccccc1)C2 [N-hydroxy-4-(3-phenylpropanoyl)-2,3,4,5-tetrahydrobenzo[f][1,4]oxazepine-8-carboxamide] | ≥ 7.00 |
| C[C@H]1c2ccc(C(=O)NO)cc2OCCN1C(=O)C1(C)COC1 [(S)-N-hydroxy-5-methyl-4-(3-methyloxetane-3-carbonyl)-2,3,4,5-tetrahydrobenzo[f][1,4]oxazepine-8-carboxamide] | ≥ 7.00 |
| C[C@H]1COc2cc(C(=O)NO)ccc2CN1C(=O)[C@H]1CCOC1 [(S)-N-hydroxy-3-methyl-4-((S)-tetrahydrofuran-3-carbonyl)-2,3,4,5-tetrahydrobenzo[f][1,4]oxazepine-8-carboxamide] | ≥ 7.00 |
| CCC(Oc1ccccc1)C(=O)N1CCOc2cc(C(=O)NO)ccc2C1 (centres unmarked) [N-hydroxy-4-(2-phenoxybutanoyl)-2,3,4,5-tetrahydrobenzo[f][1,4]oxazepine-8-carboxamide] | 6.30 to 7.00 |
| C[C@@H]1CN(C(=O)C2(C)CCC2)Cc2ccc(C(=O)NO)cc2O1 [(R)-N-hydroxy-2-methyl-4-(1-methylcyclobutane-1-carbonyl)-2,3,4,5-tetrahydrobenzo[f][1,4]oxazepine-8-carboxamide] | ≥ 7.00 |
| C[C@H]1c2ccc(C(=O)NO)cc2OCCN1C(=O)[C@@]1(C)CCCOC1 [(S)-N-hydroxy-5-methyl-4-((S)-3-methyltetrahydro-2H-pyran-3-carbonyl)-2,3,4,5-tetrahydrobenzo[f][1,4]oxazepine-8-carboxamide] | ≥ 7.00 |
| O=C(NO)c1ccc2c(c1)OC[C@H](Cc1ccccc1)N(C(=O)C1CCOCC1)C2 [(S)-3-benzyl-N-hydroxy-4-(tetrahydro-2H-pyran-4-carbonyl)-2,3,4,5-tetrahydrobenzo[f][1,4]oxazepine-8-carboxamide] | ≥ 7.00 |
| CC1(C)C[C@@H]1C(=O)N1CCOc2cc(C(=O)NO)ccc2C1 [(S)-4-(2,2-dimethylcyclopropane-1-carbonyl)-N-hydroxy-2,3,4,5-tetrahydrobenzo[f][1,4]oxazepine-8-carboxamide] | 6.30 to 7.00 |
| CCC(C(=O)N1CCOc2cc(C(=O)NO)ccc2C1)c1ccccc1 (centres unmarked) [N-hydroxy-4-(2-phenylbutanoyl)-2,3,4,5-tetrahydrobenzo[f][1,4]oxazepine-8-carboxamide] | 6.30 to 7.00 |
| CC1(C(=O)N2CC(=O)Nc3ccc(C(=O)NO)cc3C2)CCC1 [N-hydroxy-4-(1-methylcyclobutane-1-carbonyl)-2-oxo-2,3,4,5-tetrahydro-1H-benzo[e][1,4]diazepine-7-carboxamide] | 6.30 to 7.00 |

| Compound | pIC50 |
| --- | --- |
| COCC1(C(=O)N2Cc3ccc(C(=O)NO)cc3OC[C@@H]2C)COC1 [(S)-N-hydroxy-4-(3-(methoxymethyl)oxetane-3-carbonyl)-3-methyl-2,3,4,5-tetrahydrobenzo[f][1,4]oxazepine-8-carboxamide] | ≥ 7.00 |
| COc1ccc(C2(C(=O)N3CCOc4cc(C(=O)NO)ccc4C3)CC2)cc1 [N-hydroxy-4-(1-(4-methoxyphenyl)cyclopropane-1-carbonyl)-2,3,4,5-tetrahydrobenzo[f][1,4]oxazepine-8-carboxamide] | ≥ 7.00 |
| COC(C(=O)N1CCOc2cc(C(=O)NO)ccc2C1)c1ccccc1 (centres unmarked) [N-hydroxy-4-(2-methoxy-2-phenylacetyl)-2,3,4,5-tetrahydrobenzo[f][1,4]oxazepine-8-carboxamide] | 6.30 to 7.00 |
| O=C(NO)c1ccc2c(c1)OCCN(C(=O)C(c1ccccc1)N1CCC(O)CC1)C2 (centres unmarked) [N-hydroxy-4-(2-(4-hydroxypiperidin-1-yl)-2-phenylacetyl)-2,3,4,5-tetrahydrobenzo[f][1,4]oxazepine-8-carboxamide] | 6.30 to 7.00 |
| C[C@H]1c2ccc(C(=O)NO)cc2OCCN1C(=O)[C@H]1CCOC1 [(S)-N-hydroxy-5-methyl-4-((S)-tetrahydrofuran-3-carbonyl)-2,3,4,5-tetrahydrobenzo[f][1,4]oxazepine-8-carboxamide] | ≥ 7.00 |
| CC(C)(C(=O)N1CCOc2cc(C(=O)NO)ccc2C1)C1CCCCC1 [4-(2-cyclohexyl-2-methylpropanoyl)-N-hydroxy-2,3,4,5-tetrahydrobenzo[f][1,4]oxazepine-8-carboxamide] | 6.30 to 7.00 |
| CC(CC(=O)N1CCOc2cc(C(=O)NO)ccc2C1)c1ccccc1 (centres unmarked) [N-hydroxy-4-(3-phenylbutanoyl)-2,3,4,5-tetrahydrobenzo[f][1,4]oxazepine-8-carboxamide] | 6.30 to 7.00 |
| O=C(NO)c1ccc2c(c1)OCCN(C(=O)c1ccc(Oc3ccccc3)cc1)C2 [N-hydroxy-4-(4-phenoxybenzoyl)-2,3,4,5-tetrahydrobenzo[f][1,4]oxazepine-8-carboxamide] | ≥ 7.00 |
| O=C(NO)c1ccc2c(c1)OCCN(C(=O)c1ccc3c(c1)CCO3)C2 [4-(2,3-dihydrobenzofuran-5-carbonyl)-N-hydroxy-2,3,4,5-tetrahydrobenzo[f][1,4]oxazepine-8-carboxamide] | 6.30 to 7.00 |
| O=C(NO)c1ccc2c(c1)OCCN(C(=O)C(OC1CCOCC1)c1ccccc1)C2 (centres unmarked) [N-hydroxy-4-(2-phenyl-2-((tetrahydro-2H-pyran-4-yl)oxy)acetyl)-2,3,4,5-tetrahydrobenzo[f][1,4]oxazepine-8-carboxamide] | < 6.30 |
| CC1(C(=O)N2Cc3ccc(C(=O)NO)cc3OCC2(C)C)CCC1 [N-hydroxy-3,3-dimethyl-4-(1-methylcyclobutane-1-carbonyl)-2,3,4,5-tetrahydrobenzo[f][1,4]oxazepine-8-carboxamide] | < 6.30 |
| COc1ccc(C(=O)N2CCOc3cc(C(=O)NO)ccc3C2)cc1 [N-hydroxy-4-(4-methoxybenzoyl)-2,3,4,5-tetrahydrobenzo[f][1,4]oxazepine-8-carboxamide] | ≥ 7.00 |
| C[C@H]1COc2cc(C(=O)NO)ccc2CN1C(=O)C1CCCCC1 [(S)-4-(cyclohexanecarbonyl)-N-hydroxy-3-methyl-2,3,4,5-tetrahydrobenzo[f][1,4]oxazepine-8-carboxamide] | ≥ 7.00 |
| O=C(NO)c1ccc2c(c1)OCCN(C(=O)C(Oc1ccccc1)c1ccccc1)C2 (centres unmarked) [N-hydroxy-4-(2-phenoxy-2-phenylacetyl)-2,3,4,5-tetrahydrobenzo[f][1,4]oxazepine-8-carboxamide] | 6.30 to 7.00 |
| O=C(NO)c1ccc2c(c1)OCCN(C(=O)C1CCCC13CCNC3)C2 (centres unmarked) [N-hydroxy-4-(2-azaspiro[4.4]nonane-6-carbonyl)-2,3,4,5-tetrahydrobenzo[f][1,4]oxazepine-8-carboxamide] | 6.30 to 7.00 |
| O=C(NO)c1ccc2c(c1)OCCN(C(=O)C1(c3cccc(C(F)(F)F)c3)CC1)C2 [N-hydroxy-4-(1-(3-(trifluoromethyl)phenyl)cyclopropane-1-carbonyl)-2,3,4,5-tetrahydrobenzo[f][1,4]oxazepine-8-carboxamide] | ≥ 7.00 |
